“Also recorded” adds a separate entry of the source.
Key:
[1] = system: blood-brain-barrier
Method: Brain Perfusion—Before euthanizing, the testing animals was perfused by 0.9% normal saline solution through left ventricle. The brain was removed and buried in OCT, and stored in −80° C. for further analysis.
Ultrasound Guided Intracardiac Puncture—Briefly, the animals were anesthetized using 2% isoflurane gas and fixed on the platform for intracardiac puncture. To penetrate the syringe needle into intercoastal space promptly through skin and muscle layers into the left ventricle under the guidance of ultrasound imaging. An indication of successful insertion of the needle into the left ventricle is the reflux of fresh arterial blood (pink color in contrast to dark red venous blood) into the syringe.
The extravasation of stained albumin from circulation could be visualized.
Different concentration of NE0100 (40 μ1 in 0.9% saline) was tested through intracardiac puncture, followed by immediate intravenous application of 2% Evans Blue (40 μ1 in volume). The brain was removed after perfusion.
Experimental groups include: • IC 2% EB only • IC 20% ethanol+2% EB • IC 20% ethanol+2% EB+5% NEO100 • IC 20% ethanol+5% NEO100, followed by 2% EB tail vein injection • IV 20% ethanol+2% EB+5% NEO100 • IV 20% ethanol+2% EB
The immune competent C57 BL/6 mice was injected with 5% NEO100 (v/v) through intracardiac puncture (IC), followed by intravenous injection of 2% Evans Blue at different time points, such as 0, 5 min, 15 min, 30 min, 1-hour, 2-hour, 3-hour, and 4 hours, post the IC injection.
Intracardiac Injection (IC): 5% NEO100. • 2. Followed by intravenous injection (IV) of 2% EB at different times. • 3. The testing animals were euthanized one hour after the IV injection.

[2] = system: GL261 mouse glioma; assay: Anti-mouse PD-1 antibody therapeutic efficacy (survival) in intracranial syngeneic mouse glioma; assay type: in vivo, C57 BL/6 mice
Method: 100,000 GL261 mouse glioma cells were injected intracranially to immune competent mice, C57 BL/6. 7 days post the injection, the mice were randomly divided into 4 experimental groups, and initiated the treatment at the same day. • Group 1. Control: IV and Intracardiac injection of 40 μl Saline Solution (5). • Group 2. Antibody treated mice: IV 40 μl Anti-mouse PD1 antibody at the dose of 2.5 • mg/kg (5). • Group 3. NEO100 treated mice: Intracardiac injection of 40 μl 5% NEO100 (5). • Group 4. Combination of NEO100 and antibody treated mice: Intracardiac 40 μl 5% NEO100, followed by IV 40 μl Anti-PD1 antibody at the dose of 2.5 mg/kg (6).
Animal survival data were plotted using the Kaplan-Meier method. One-way ANOVA was used for the overall test for differences. Grouped comparisons were performed using the Tukey method of adjusting for multiple comparisons. Logrank (Mantel-Cox) test was applied for the comparison of survival curves. A statistical evaluation result of p<0.05 was considered significant.

[3] = system: GL261 mouse glioma; assay: NEO100-mediated human CAR T cell delivery to brain and tumor (CD3 IHC); assay type: in vivo
Method: 2-million CD19 and Lym-1 human CAR T cells that were suspended in 0.9% saline working solution to be used for the IV injection with and without intracardiac NEO100.
Preparation of the working solution for intracardiac injection of NEO100: 3% NEO100 suspended in 0.9% saline.
40 μl 3% NEO100 in saline was injected slowly to complete intracardiac application. Direct cell injection into the heart could cause local microinfarctions if the cells are clumpy during injection, hemopericardium and death as a consequence. This is why ultrasound guided injections with a small 30 G needle is important to minimize these potential adverse effects, (1) enabling the visualization of the needle tract to ensure that the needle enters the left ventricle only, and (2) subsequent monitoring of the heart through not only ECG but visualization of heart wall function after the injection. The fine gauge of the needle ensures that the cells are not clumpy when the cells are injected through intracardiac puncture.
Immediate after the completion of NEO100 injection, 2 million human CAR T cells in 40 μl PBS were injected through tail vein catheter that pre-primed with saline solution. To avoid the possible adverse effects mentioned above by direct cell injection through intracardiac application, we set up 2-step procedures for the study.
Step 1: 40 μl 3% NEO100 in saline was injected slowly to complete intracardiac application. This procedure allows NEO100 to exert the function of BBB disruption.
Step 2: 2-million CAR T cells were injected by IV through tail vein catheter.
Brain Perfusion—In order to rule out the residue left over inside the blood vessel after euthanizing, the testing animals were perfused by 10 ml 0.9% normal saline solution through left ventricle to flush out the blood. […] Confocal Imaging—[…] fresh frozen sections were made by cryostasis machine and pasted on microslide. Coverslip was mounted on the brain section by DAPI mounting medium before Confocal examination. […]

[4] = system: Madin-Darby Canine Kidney (MDCK) cells; assay: In vitro BBB tight junction model (Transwell, TEER, fluorescence antibody); assay type: cell-based
Method: The labelled components are Transwell chemotaxis chamber; upper chamber; porous membrane and lower chamber. Transwell culture chambers (pore size: 0.8 μm). Madin-Darby Canine Kidney (MDCK) cells are epithelial cells. TEER: transepithelial/transendothelial electrical resistance. Fluorescence Ab: Alexa Fluo® 488; donkey anti-rat IgG (H+L). Fluorescence was measured in the lower chamber in about 120 minutes.

[5] = system: recurrent malignant gliomas; conditions: intranasal delivery, cited from earlier work
[6] = system: Raji's-Luc/GFP human B-cell lymphoma cells; assay: Lym-1 CAR T cell delivery in intracranial Raji lymphoma xenografts (survival); assay type: in vivo, NSG mice; conditions: IV Lym-1 CAR T (5×10e6) + IC NEO100 (0.3% v/v=492 μM); control mice died within 15-20 days; P=0.0029
Method: 50,000 (5×10^4) human B-cell lymphoma cells, Raji's-Luc/GFP, were injected intracranially into NSG mice.
5 days post the tumor cells injection, the optical imaging was performed to confirm the tumor uptake (100% tumor uptake).
There were 3 experimental groups: (1) Control; (2) IV CAR T (5×10e6); (3) IV CAR T (5×10e6)+IC NEO100 (0.3% v/v=492 μM)
Body weight was monitored for the physical condition of the mice during the treatment. Tumor growth was monitored by optical imaging.

[7] = system: U-87 human glioma cells; assay: Intracranial glioma model in athymic nu/nu mice (survival); assay type: in vivo; conditions: applicant's prior experience; untreated mice about four weeks
Method: Male athymic nu/nu mice (6-8 weeks old) will be employed for this research. Rodent subcutaneous/intracranial glioma model can be established as follows. Six to eight week old athymic nu/nu mice will be anesthetized with intraperitoneal injections of ketamine (80 mg/kg) and xylazine (10 mg/kg). For the intracranial glioma model, the mice are placed into a stereotactic head frame (Harvard Apparatus), and local anesthetic (0.2 cc of 0.25% xylocaine) is injected into the right frontal scalp. A knife blade is used to make a small incision, and a drill bit is used to make a small opening in the right frontal skull at the level of the coronal suture. Glioma cells (1×10^5 cells/10 μl), for example, U-87 human glioma cells, will be loaded into a calibrated Hamilton syringe. The needle tip will be placed precisely into the right frontal lobe of the […], and cells will be slowly injected using a control push from the Hamilton syringe. After the injection is finished, the syringe and needle will be removed, and the wound closed. […]
Brains will be harvested, and tumor size determined. […]

Row | Structure (SMILES) | disturbance of the BBB (Evans Blue uptake into brain) ([1]; NEO100 1:1000 dilution (6.5 mM 40 μl) intracardiac, then 2% Evans Blue IV) | dopamine delivery to the brain ([1]; intracardiac NEO100) | opening of the BBB for antibodies ([1]; intracardiac injection (equivalent to intra-arterial injection for mice)) | tight junction in the brain ([1]; intracardiac injection of 5% NEO100 compared to normal brain) | safety of intraarterial administration ([1]; mouse, in vivo) | animal survival, combination ([2]; 40 μl 5% NEO100 intracardiac followed by anti-PD1 antibody 2.5 mg/kg IV) | animal survival, single agent ([2]; NEO100 alone (40 μl 5% intracardiac) or anti-PD1 alone (2.5 mg/kg IV)) | severe adverse effect or animal death ([3]; 3% NEO100 intracardiac injection) | penetration of human CAR T cells (anti-CD19 and Lym-1) into the tumor formed inside the brain ([3]; 40 μl 3% NEO100 intracardiac, then 2 million CAR T cells IV, compared to IV only, 6 h) | CD3 positive cells in the normal parts of brain ([3]; intracardiac NEO100 plus IV CAR T cells vs IV injection only) | penetration of fluorescence labelled antibody across in vitro BBB model ([4]; Alexa Fluo 488 donkey anti-rat IgG, fluorescence in lower chamber at about 120 minutes) | TEER (transepithelial/transendothelial electrical resistance) ([4]; NEO100 2 mM) | patients achieving 6 month progression-free period ([5]; 140 treated patients) [%] | disease response [5] | side effects from the treatment [5] | disease remission ([5]; several patients) [years] | animal survival (Kaplan Meier) [6] | survival after implantation [7]
1 | C=C(C)[C@@H]1CC=C(CO)CC1 [NEO100, perillyl alcohol] | still effective to disturb the BBB | mediated dopamine delivery through the breached blood-brain-barrier | could open the BBB for antibodies | breached dramatically | safe to administer intraarterially | still alive | all the controls were dead | does not cause any severe adverse effect or animal death | greatly increase the penetration into the tumor | More CD3 positive cells were found in the normal parts of brain | transiently allow labeled antibodies to transiently cross it; also recorded: enhanced penetration of fluorescence labelled antibody | decreased TEER | 50 | regression or stabilization of the disease | almost non-existent | ≤ 3 | survived | –
2 | Cn1nnc2c(C(N)=O)ncn2c1=O [TMZ, temozolomide] | – | – | – | – | – | – | – | – | – | – | – | – | – | – | – | – | – | up to 8 weeks
